# Earlier results, collected in publication PMC3178464 (Bioorganic & medicinal chemistry, 2009).
# Tested on: ER
substance,measurement,value
17α-ethynylestradiol [EE2],affinity for ER relative to E2,nearly three-fold higher affinity
